Experimental findings from US7718651B2, “Inhibitors of FtsZ and uses thereof” (priority 2002, dated 2010) are described below.

The first assay deals with M. tuberculosis H37Rv. The assay can be described thus: microbe, parasite or virus in culture. Type of assay: cell-based.
Settings: not given
In the case of `CCOC(=O)Nc1cc2c(c(N)n1)N=C(c1ccccc1)[C@H](C)N2` [Compound A110], the “% Inh” value is 43%.
`CCOC(=O)Nc1cc2c(c(N)n1)N=C(c1ccccc1)[C@H](C)N2` [Compound A129]: the “% Inh” value is recorded as 28%.
The same measure, in the same setting: the value for `CCOC(=O)Nc1cc(NCc2ccccc2)c(N)c(N)n1` [Compound A154] was 12%.

Still in this assay, the particulars now being: M. tuberculosis H37Rv, screen concentration 12.5 g/ml [sic], Table 8.
Take `CCOC(=O)Nc1cc(NCc2ccccc2)c2nc[nH]c2n1` [Compound A111]: the “% Inh” value was determined as 43%.
With `CCOC(=O)Nc1cc(N)c([N+](=O)[O-])c(N[C@H](C)C(=O)c2ccccc2)n1` [Compound A112], the “% Inh” value is reported as 42%.
On to `COC(=O)Nc1cc2c(c(N)n1)N=C(c1ccccc1)[C@H](C)N2` [Compound A113], for which the “% Inh” value amounted to 41%.
Still for that read-out and setting: the value for `CCOC(=O)Nc1cc2[nH]c(-c3ccc(OC)cc3)nc2c(N)n1` [Compound A114] was 41%.
The same measure, in the same setting: the result for `CCOC(=O)Nc1cc(NCCC(O)c2ccccc2)c([N+](=O)[O-])c(N)n1` (stereo not shown) [Compound A115] reads 41%; that for `CCOC(=O)Nc1cc(NC(c2ccccc2)c2ccccc2)c(N)c(N)n1` [Compound A117], 40%.
As for `CCOC(=O)Nc1cc(NC(C)CCCN(CC)CC)c2ncc(-c3cc(OC)c(OC)c(OC)c3)nc2n1.Cl.Cl` (stereo not shown) [Compound A118], the “% Inh” value came out at 40%.
On to `CCOC(=O)Nc1cc(NC(c2ccccc2)c2ccccc2)c2nc(-c3ccccc3)c(-c3ccccc3)nc2n1` [Compound A119], for which the “% Inh” value came out at 36%.
`CCOC(=O)Nc1cc2c(nc(SCc3ccccc3)n2N)c(N)n1` [Compound A120]: the “% Inh” value is listed as 34%.
Same read-out and setting: the value for `CCOC(=O)Nc1cc(Nc2ccc(Cl)cc2)c2nc(-c3ccc(Cl)cc3)c(-c3ccc(Cl)cc3)nc2n1` [Compound A121] was 33%; that for `CCOC(=O)Nc1cc(NCC(O)CN(C)c2ccc(Cl)cc2)c([N+](=O)[O-])c(N)n1` (stereo not shown) [Compound A122] was 31%.
As for `CCOC(=O)Nc1cc2ncc(C(=O)N(C)c3ccccc3)nc2c(N)n1` [Compound A123], the “% Inh” value was 31%.
With `CCOC(=O)Nc1cc2oc(-c3cc(OC)c(OC)c(OC)c3)nc2c(N(CCc2ccccc2)Cc2ccccc2)n1` [Compound A124], the “% Inh” value is 31%.
Same read-out and setting: the result for `CCOC(=O)Nc1cc2[nH]c(-c3ccccc3)nc2c(N)n1` [Compound A125] reads 30%.
Same read-out and setting: the result for `CCOC(=O)Nc1cc(NCCc2ccc(S(N)(=O)=O)cc2)c([N+](=O)[O-])c(N)n1` [Compound A126] reads 30%; that for `CCOC(=O)Nc1cc(NC/C(CN(C)c2ccccc2)=N/O)c([N+](=O)[O-])c(N)n1` [Compound A127], 30%.
Turning to `CCOC(=O)Nc1cc(NC(c2ccccc2)c2ccccc2)c([N+](=O)[O-])c(NC/C(=N/O)c2ccc(Cl)cc2)n1` [Compound A130], the “% Inh” value was 28%.
Same read-out and setting: the value for `CCOC(=O)Nc1cc2c(c(N)n1)N=C(c1ccccc1OC)CO2` [Compound A131] was 25%; that for `CCOC(=O)Nc1cc2c(nc(SCc3ccccc3)n2/N=C/c2ccccc2)c(N)n1` [Compound A132] was 24%.
Consider `CCOC(=O)Nc1cc(NC(C)C(=O)COc2ccccc2)c([N+](=O)[O-])c(N)n1` (stereo not shown) [Compound A133], for which the “% Inh” value is recorded as 23%.
Still for that read-out and setting: the result for `CCOC(=O)Nc1cc(NC(c2ccccc2)c2ccccc2)c2nc(O)[nH]c2n1` [Compound A134] reads 23%.
As for `CCOC(=O)Nc1cc(NCC(=O)CCc2ccccc2)c([N+](=O)[O-])c(N)n1` [Compound A135], the “% Inh” value came to 22%.
Take `CCOC(=O)Nc1cc(NC/C(CCc2ccccc2)=N\O)c([N+](=O)[O-])c(N)n1` [Compound A136]: the “% Inh” value stood at 21%.
The same measure, in the same setting: the value for `CCOC(=O)Nc1cc2oc(-c3ccc(Cl)cc3)nc2c(N(CCc2ccccc2)Cc2ccccc2)n1` [Compound A137] was 21%.
Same read-out and setting: the result for `CCOC(=O)Nc1cc2c(c(N)n1)N=C(CN(C)c1ccc(OC)cc1)CN2` [Compound A138] reads 20%.
Same read-out and setting: the value for `CCOC(=O)Nc1cc(NC(C)C(=O)c2ccc3c(c2)OCO3)c([N+](=O)[O-])c(N)n1` (stereo not shown) [Compound A140] was 19%; that for `CCOC(=O)Nc1cc(N)c2nc(-c3ccccc3)c(N)nc2n1` [Compound A141] was 19%; that for `CCOC(=O)Nc1cc(N)c([N+](=O)[O-])c(NC(c2ccccc2)c2ccccc2)n1` [Compound A142] was 18%.
As to `CCOC(=O)Nc1cc(NCC(=O)CN(C)c2ccccc2)c([N+](=O)[O-])c(N)n1` [Compound A143], the “% Inh” value is 17%.
Same read-out and setting: the result for `CCOC(=O)Nc1cc(NC(C)/C(=N/O)c2ccc(NC)cc2)c([N+](=O)[O-])c(N)n1` (stereo not shown) [Compound A144] reads 16%.
Consider `CCOC(=O)Nc1cc2[nH]c(-c3ccc(C)cc3)nc2c(N(CCc2ccccc2)Cc2ccccc2)n1` [Compound A145], for which the “% Inh” value worked out at 16%.
Still for that read-out and setting: the result for `CCOC(=O)Nc1cc(N)c2ncc(-c3cc(OC)c(OC)c(OC)c3)nc2n1` [Compound A147] reads 15%; that for `CCOC(=O)Nc1cc(N)c2nc(-c3ccccc3)cnc2n1` [Compound A148], 14%; that for `CCOC(=O)Nc1cc(NC(C)/C(=N/O)c2ccc(O)cc2)c([N+](=O)[O-])c(N)n1` (stereo not shown) [Compound A149], 14%.
On the same count and under the same terms, the result for `CCOC(=O)Nc1nc(NC(=O)OCC)c([N+](=O)[O-])c(NC(C)/C(=N\O)c2ccccc2)c1[N+](=O)[O-]` (stereo not shown) [Compound A150] reads 14%; that for `CCOC(=O)Nc1cc2[nH]c(-c3ccc4c(c3)OCO4)nc2c(N(CCc2ccccc2)Cc2ccccc2)n1` [Compound A151], 14%; that for `CCOC(=O)Nc1cc2[nH]c(-c3ccc(O)cc3)nc2c(N)n1` [Compound A152], 13%.
Same read-out and setting: the value for `CCOC(=O)Nc1cc(NC(C)C(O)COc2ccccc2)c([N+](=O)[O-])c(N)n1` (stereo not shown) [Compound A155] was 11%; that for `CCOC(=O)Nc1cc(N)c(N)c(N)n1` [Compound A156] was 10%.
For the molecule `CCOC(=O)Nc1cc2c(c(N)n1)N=C(c1ccc(OC)cc1)CS2` [Compound A158], the “% Inh” value came out at 10%.
For the molecule `CCOC(=O)Nc1cc2ncc(-c3ccccc3)nc2c(NC(C)=O)n1` [Compound A159], the “% Inh” value was determined as 10%.
`CCCCNC(=O)Oc1ccc(C2=Nc3c(cc(NC(=O)OCC)nc3N)N[C@H]2C)cc1` [Compound A160]: the “% Inh” value came to 10%.
Still for that read-out and setting: the result for `CCOC(=O)Nc1cc(NC(C)C(=O)c2ccccc2)c([N+](=O)[O-])c(N)n1` (stereo not shown) [Compound A161] reads 9%; that for `CCOC(=O)Nc1cc(N)c([N+](=O)[O-])c(N)n1` [Compound A162], 8%; that for `CCOC(=O)Nc1cc(NC(C)C(O)c2ccc3c(c2)OCO3)c([N+](=O)[O-])c(N)n1` (stereo not shown) [Compound A163], 8%.
Regarding `CCOC(=O)Nc1cc2c(c(N)n1)N=C(c1ccc(O)cc1)[C@H](C)N2` [Compound A164], the “% Inh” value amounted to 8%.
For `COC(=O)Nc1cc(Cl)c([N+](=O)[O-])c(NC(=O)OC)n1` [Compound A165], the “% Inh” value is 8%.
With `CCOC(=O)Nc1cc2c(c(N)n1)N=C(c1ccc(O)cc1)[C@@H](C)N2` [Compound A166], the “% Inh” value worked out at 8%.
For the molecule `CCOC(=O)Nc1cc2c(c(N)n1)N=C(c1cccc(N)c1)C(C)N2` (stereo not shown) [Compound A167], the “% Inh” value is reported as 7%.
